Measurements: US20250059213A1, “LONP1 INHIBITORS, USES AND METHODS” (Pretzel Therapeutics, Inc., priority 2021, published 2025)

molecular target: LONP1 (NM_004793.4) (Homo sapiens (Human), UniProt P36776); assay: LONP1 FRET-based protease activity assay (fluorogenic peptide substrate); assay type: biochemical; details: LONP1 15 nM, substrate 3 μM, 15 min preincubation, 1 hour at 37° C.; average of a minimum of two repeats
Experimental: Inhibition of LONP1 protease activity by an inhibitor compound of the disclosure elicits a decrease in the fluorescent signal.
The LONP1-containing mix (10 μL) was incubated with the test compound for 15 min at 37° C. before adding the peptide-containing mix (5 μL). Solutions were dispensed using a small cassette-Multidrop Combi (Thermo Scientific).
Each value is based on an average of a minimum of two repeats.

Chain of LONP1 (NM_004793.4) (P36776 68-959): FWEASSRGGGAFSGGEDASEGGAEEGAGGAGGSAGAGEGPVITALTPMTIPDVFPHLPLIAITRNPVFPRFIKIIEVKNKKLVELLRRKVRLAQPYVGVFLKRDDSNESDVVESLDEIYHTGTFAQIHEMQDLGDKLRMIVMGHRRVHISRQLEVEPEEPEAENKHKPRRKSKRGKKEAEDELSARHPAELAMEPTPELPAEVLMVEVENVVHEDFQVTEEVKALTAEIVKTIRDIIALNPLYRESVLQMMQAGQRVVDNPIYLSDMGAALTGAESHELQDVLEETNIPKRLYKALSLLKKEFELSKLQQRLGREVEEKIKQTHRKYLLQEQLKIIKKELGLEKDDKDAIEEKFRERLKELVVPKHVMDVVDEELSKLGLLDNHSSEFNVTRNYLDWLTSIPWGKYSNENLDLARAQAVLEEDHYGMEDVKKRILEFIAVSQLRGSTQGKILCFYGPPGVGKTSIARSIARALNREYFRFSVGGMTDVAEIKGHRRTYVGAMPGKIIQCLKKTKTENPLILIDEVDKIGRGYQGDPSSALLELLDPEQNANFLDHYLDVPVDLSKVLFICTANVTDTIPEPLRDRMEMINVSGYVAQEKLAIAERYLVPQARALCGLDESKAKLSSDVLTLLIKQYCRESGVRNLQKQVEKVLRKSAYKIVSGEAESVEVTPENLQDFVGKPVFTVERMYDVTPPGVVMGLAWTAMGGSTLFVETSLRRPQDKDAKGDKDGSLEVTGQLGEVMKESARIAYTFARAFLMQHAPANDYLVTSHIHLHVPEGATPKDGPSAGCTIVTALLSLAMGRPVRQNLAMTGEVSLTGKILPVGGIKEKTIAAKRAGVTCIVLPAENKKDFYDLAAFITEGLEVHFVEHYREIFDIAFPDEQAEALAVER

| Structure (SMILES) | IC50 [nM] |
| --- | --- |
| CC(=O)N[C@H](CC(=O)N1CCOCC1)C(=O)N[C@@H](CCCc1ccccc1)B(O)O [Compound 19, ((R)-1-((R)-2-acetamido-4-morpholino-4-oxobutanamido)-4-phenylbutyl)boronic acid] | < 50 |
| CC[C@H](NC(=O)[C@@H](CC(=O)N1CCOCC1)NC(=O)c1cnccn1)B(O)O [Compound 32, ((R)-1-((R)-4-morpholino-4-oxo-2-(pyrazine-2-carboxamido)butanamido)propyl)boronic acid] | < 50 |
| CCC[C@H](C(=O)N[C@@H](CCCc1ccccc1)B(O)O)N(C)C(=O)c1cnccn1 [Compound 51, ((R)-1-((R)-2-(N-methylpyrazine-2-carboxamido)pentanamido)-4-phenylbutyl)boronic acid] | 50 to 500 |
| O=C(C[C@@H](NC(=O)c1cnccn1)C(=O)N[C@@H](CCCc1ccccc1)B(O)O)c1ccccc1 [Compound 3, ((1R)-1-(4-oxo-4-phenyl-2-(pyrazine-2-carboxamido)butanamido)-4-phenylbutyl)boronic acid] | < 50 |
| COC[C@@H](NC(=O)c1cccc(OC)n1)C(=O)N[C@@H](CCCc1ccccc1)B(O)O [Compound 50, ((R)-1-((R)-3-methoxy-2-(6-methoxypicolinamido)propanamido)-4-phenylbutyl)boronic acid] | < 50 |
| O=C(N[C@H](CCC(=O)N1CCOCC1)C(=O)N[C@@H](CCCc1ccccc1)B(O)O)c1cnccn1 [Compound 23, ((R)-1-((R)-5-morpholino-5-oxo-2-(pyrazine-2-carboxamido)pentanamido)-4-phenylbutyl)boronic acid] | < 50 |
| CN(C)C(=O)C[C@@H](NC(=O)c1cnccn1)C(=O)N[C@@H](CCCc1ccccc1)B(O)O [Compound 8, ((R)-1-((R)-4-(dimethylamino)-4-oxo-2-(pyrazine-2-carboxamido)butanamido)-4-phenylbutyl)boronic acid] | < 50 |
| O=C(N[C@H](COc1ccccn1)C(=O)N[C@@H](CCCc1ccccc1)B(O)O)c1cnccn1 [Compound 29, ((R)-4-phenyl-1-((R)-2-(pyrazine-2-carboxamido)-3-(pyridin-2-yloxy)propanamido)butyl)boronic acid] | < 50 |
| O=C(NC(CC(=O)N1CCOCC1)C(=O)N[C@@H](Cc1ccccc1)B(O)O)c1cnccn1 (stereo in doubt) [Compound 47, ((R)-1-((R)-4-morpholino-4-oxo-2-(pyrazine-2-carboxamido)butanamido)-2-phenylethyl)boronic acid] | > 5000 |
| CC(C)(C)OC(=O)N[C@H](CC(=O)N1CCOCC1)C(=O)N[C@@H](CCCc1ccccc1)B(O)O [Compound 21, ((R)-1-((R)-2-((tert-butoxycarbonyl)amino)-4-morpholino-4-oxobutanamido)-4-phenylbutyl)boronic acid] | < 50 |
| CC(C)(C)NC(=O)N[C@H](CC(=O)N1CCOCC1)C(=O)N[C@@H](CCCc1ccccc1)B(O)O [Compound 22, ((R)-1-((R)-2-(3-(tert-butyl)ureido)-4-morpholino-4-oxobutanamido)-4-phenylbutyl)boronic acid] | 50 to 500 |
| O=C(N[C@H](CC(=O)N1CCOCC1)C(=O)N[C@@H](CCCc1ccccc1)B(O)O)C1CCCCO1 (stereo partly drawn) [Compound 44, ((1R)-1-((2R)-4-morpholino-4-oxo-2-(tetrahydro-2H-pyran-2-carboxamido)butanamido)-4-phenylbutyl)boronic acid] | < 50 |
| O=C(N[C@H](CC(=O)N1CCCCC1)C(=O)N[C@@H](CCCc1ccccc1)B(O)O)c1cnccn1 [Compound 11, ((R)-1-((R)-4-oxo-4-(piperidin-1-yl)-2-(pyrazine-2-carboxamido)butanamido)-4-phenylbutyl)boronic acid] | < 50 |
| CC(C)C[C@H](NC(=O)[C@@H](CC(=O)N1CCOCC1)NC(=O)c1cnccn1)B(O)O [Compound 4, ((R)-3-methyl-1-((R)-4-morpholino-4-oxo-2-(pyrazine-2-carboxamido)butanamido)butyl)boronic acid] | < 50 |
| Cc1nc(C)c(C(=O)N[C@H](CC(=O)N2CCOCC2)C(=O)N[C@@H](CC(C)C)B(O)O)o1 [Compound 7, ((R)-1-((R)-2-(2,4-dimethyloxazole-5-carboxamido)-4-morpholino-4-oxobutanamido)-3-methylbutyl)boronic acid] | < 50 |
| CCC[C@H](C(=O)N(C)[C@@H](CCCc1ccccc1)B(O)O)N(C)C(=O)c1cnccn1 [Compound 52, ((R)-1-((R)—N-methyl-2-(N-methylpyrazine-2-carboxamido)pentanamido)-4-phenylbutyl)boronic acid] | 50 to 500 |

| Structure (SMILES) | IC50 [nM] |
| --- | --- |
| CCCC[C@H](NC(=O)[C@@H](CC(=O)N1CCOCC1)NC(=O)c1cnccn1)B(O)O [Compound 6, ((R)-1-((R)-4-morpholino-4-oxo-2-(pyrazine-2-carboxamido)butanamido)pentyl)boronic acid] | < 50 |
| COC[C@@H](NC(=O)c1cnccn1)C(=O)N[C@@H](COCc1ccccc1)B(O)O [Compound 38, ((R)-2-(benzyloxy)-1-((R)-3-methoxy-2-(pyrazine-2-carboxamido)propanamido)ethyl)boronic acid] | < 50 |
| CCNC(=O)C[C@@H](NC(=O)c1cnccn1)C(=O)N[C@@H](CCCc1ccccc1)B(O)O [Compound 9, ((R)-1-((R)-4-(ethylamino)-4-oxo-2-(pyrazine-2-carboxamido)butanamido)-4-phenylbutyl)boronic acid] | < 50 |
| CCC[C@H](NC(=O)[C@@H](CC(=O)N1CCOCC1)NC(=O)c1cnccn1)B(O)O [Compound 31, ((R)-1-((R)-4-morpholino-4-oxo-2-(pyrazine-2-carboxamido)butanamido)butyl)boronic acid] | < 50 |
| O=C(N[C@@H](CCCc1ccccc1)B(O)O)[C@@H](CC(=O)N1CCOCC1)NC(=O)N1CCOCC1 [Compound 20, ((R)-1-((R)-2-(morpholine-4-carboxamido)-4-morpholino-4-oxobutanamido)-4-phenylbutyl)boronic acid] | < 50 |
| O=C(N[C@H](CC(=O)N1CCOCC1)C(=O)N[C@@H](CCc1ccccc1)B(O)O)c1cnccn1 [Compound 5, ((R)-1-((R)-4-morpholino-4-oxo-2-(pyrazine-2-carboxamido)butanamido)-3-phenylpropyl)boronic acid] | < 50 |
| CN(C)C(=O)N[C@H](CC(=O)N1CCOCC1)C(=O)N[C@@H](CCCc1ccccc1)B(O)O [Compound 33, ((R)-1-((R)-2-(3,3-dimethylureido)-4-morpholino-4-oxobutanamido)-4-phenylbutyl)boronic acid] | < 50 |
| CN(C)S(=O)(=O)C[C@@H](NC(=O)c1cnccn1)C(=O)N[C@@H](CCCc1ccccc1)B(O)O [Compound 27, ((R)-1-((S)-3-(N,N-dimethylsulfamoyl)-2-(pyrazine-2-carboxamido)propanamido)-4-phenylbutyl)boronic acid] | < 50 |
| CCC[C@@H](NC(=O)c1cnccn1)C(=O)N[C@@H](COCc1ccccc1)B(O)O [Compound 39, ((R)-2-(benzyloxy)-1-((R)-2-(pyrazine-2-carboxamido)pentanamido)ethyl)boronic acid] | < 50 |
| COC[C@@H](NC(=O)c1cnccn1)C(=O)N[C@@H](CCCc1ccccc1)B(O)O [Compound 37, ((R)-1-((R)-3-methoxy-2-(pyrazine-2-carboxamido)propanamido)-4-phenylbutyl)boronic acid] | < 50 |
| O=C(N[C@H](CC(=O)N1CCOCC1)C(=O)NC(CCCc1ccccc1)B(O)O)C1CCOCC1 (stereo in doubt) [Compound 42, ((R)-1-((R)-4-morpholino-4-oxo-2-(tetrahydro-2H-pyran-4-carboxamido)butanamido)-4-phenylbutyl)boronic acid] | < 50 |
| CS(=O)(=O)CC[C@@H](NC(=O)c1cnccn1)C(=O)N[C@@H](CCCc1ccccc1)B(O)O [Compound 35, ((R)-1-((R)-4-(methylsulfonyl)-2-(pyrazine-2-carboxamido)butanamido)-4-phenylbutyl)boronic acid] | < 50 |
| COC[C@@H](NC(=O)c1ccccc1)C(=O)N[C@@H](CCCc1ccccc1)B(O)O [Compound 48, ((R)-1-((R)-2-benzamido-3-methoxypropanamido)-4-phenylbutyl)boronic acid] | < 50 |
| O=C(N[C@@H](CCCc1ccccc1)B(O)O)[C@@H](CC(=O)N1CCOCC1)NS(=O)(=O)c1ccccc1 [Compound 43, ((R)-1-((R)-4-morpholino-4-oxo-2-(phenylsulfonamido)butanamido)-4-phenylbutyl)boronic acid] | < 50 |
| NC(=O)C[C@@H](NC(=O)c1cnccn1)C(=O)N[C@@H](CCCc1ccccc1)B(O)O [Compound 10, ((R)-1-((R)-4-amino-4-oxo-2-(pyrazine-2-carboxamido)butanamido)-4-phenylbutyl)boronic acid] | < 50 |
| O=C(N[C@H](CC(=O)N1CCOCC1)C(=O)NC(CCCc1ccccc1)B(O)O)C1CCCCC1 (stereo in doubt) [Compound 41, ((R)-1-((R)-2-(cyclohexanecarboxamido)-4-morpholino-4-oxobutanamido)-4-phenylbutyl)boronic acid] | < 50 |
